For twelve molecules, microsomal CLint and Papp results are on record in patent US9409952B2, “Peptide-compound cyclization method” (Chugai Seiyaku Kabushiki Kaisha, priority 2011, dated 2016).

Data set [1] in a line: Metabolic stability in human hepatic microsome. Conditions: microsomes, pH 7.4; human hepatic microsome, NADPH(+); read-out: CL NADPH(+). Format: in vitro ADME.
A short description of data set [2]: PAMPA (parallel artificial membrane permeability assay). As to conditions: PAMPA; membrane permeation rate (Pe); 50 mM MOPSO buffer pH 6.5 with 5.0% glycocholic acid, 37° C., 18 hours; read-out: iPAMPA Pe. Type of data set: in vitro ADME. An outline of the steps: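 Artificial membrane was 10% (w/v) egg lecithin plus 0.5% (w/v) cholesterol in dodecane on a PVDF filter. A 10 mM DMSO stock was added at 0.5% (v/v) to donor buffer (50 mM MOPSO, pH 6.5, 5.0% glycocholic acid). After 18 h at 37 °C, LC/MS or LC/UV gave donor and acceptor levels for Pe.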
Background: The PAMPA barrier holds no transporters, so it reflects passive diffusion.

Starred links: 1 amine or outer side, 2 acyl side, 3 side chain; linkers in the order of their positions; H or OH if unused. Positions of bridges follow the written chain, without caps; N, C: chain ends. Non-standard residues stand in square brackets, D forms with d. Residues, ends and D or L forms follow the SMILES beside them. *: point of attachment. NMeF = CN[C@@H](Cc1ccccc1)C(=O)O; NMeGABA = CN(CCCC(=O)[*:2])[*:1]; NMeβAla = CN(CCC(=O)[*:2])[*:1]; NMeL = CN[C@@H](CC(C)C)C(=O)O; NMeV = CN[C@H](C(=O)O)C(C)C; NMeA = CN[C@@H](C)C(=O)O; Piperidide = C1CCN(*)CC1; dNMeA = CN[C@H](C)C(=O)O; Sar = CNCC(=O)O

On to `CC(C)C[C@@H]1NC(=O)[C@H]([C@@H](C)O)NC(=O)[C@H](CC(C)C)N(C)C(=O)[C@H](C)N(C)C(=O)[C@H](Cc2ccccc2)N(C)C(=O)[C@H](Cc2ccccc2)NC(=O)[C@H](CC(C)C)N(C)C(=O)CCN(C)C(=O)C[C@@H](C(=O)N(C)[C@@H](Cc2ccccc2)C(=O)N[C@@H](C)C(=O)N2CCCCC2)NC(=O)[C@H](CC(C)C)N(C)C1=O` [DP-351] ([NMeβAla][NMeL]F[NMeF][NMeA][NMeL]TL[NMeL]D[NMeF]A-Piperidide; lactam N-10), for which the microsomal CLint at 1 uM in data set [1] stood at 51 µL/min/mg. Also, in data set [2], the Papp at 18 hours, 50 µM turned out to be 63 ×10⁻⁶ cm/s.

`CC(C)C[C@H]1C(=O)N[C@@H](Cc2ccccc2)C(=O)N(C)[C@@H](C(C)C)C(=O)N[C@@H]([C@@H](C)O)C(=O)N(C)[C@@H](C)C(=O)NCC(=O)N(C)[C@@H](Cc2ccccc2)C(=O)N[C@H](C(=O)N(C)[C@@H](Cc2ccccc2)C(=O)N[C@@H](C)C(=O)N2CCCCC2)CC(=O)N(C)CCC(=O)N[C@@H](C(C)C)C(=O)N1C` [DP-352] ([NMeβAla]V[NMeL]F[NMeV]T[NMeA]G[NMeF]D[NMeF]A-Piperidide; lactam N-10): in data set [1], the microsomal CLint at 1 uM was determined as 66 µL/min/mg. In addition, the Papp at 18 hours, 50 µM in data set [2] was 25 ×10⁻⁶ cm/s.

As to `CC(C)C[C@H]1C(=O)N[C@@H]([C@@H](C)O)C(=O)N(C)[C@@H](C)C(=O)N[C@H](C(=O)N(C)[C@@H](Cc2ccccc2)C(=O)N[C@@H](C)C(=O)N2CCCCC2)CC(=O)N(C)[C@H](C)C(=O)N(C)[C@@H](Cc2ccccc2)C(=O)N(C)[C@@H](C)C(=O)N[C@@H](C)C(=O)N(C)[C@@H](C)C(=O)N(C)[C@@H](Cc2ccccc2)C(=O)N1C` [DP-353] ([dNMeA][NMeF][NMeA]A[NMeA][NMeF][NMeL]T[NMeA]D[NMeF]A-Piperidide; lactam N-10), in data set [1], the microsomal CLint at 1 uM amounted to 13 µL/min/mg. Further, the Papp at 18 hours, 50 µM in data set [2] stood at 16 ×10⁻⁶ cm/s.

As for `CC(C)C[C@H]1C(=O)N[C@@H](C)C(=O)N(C)[C@@H](C)C(=O)N[C@H](C(=O)N(C)[C@@H](Cc2ccccc2)C(=O)N[C@@H](C)C(=O)N2CCCCC2)CC(=O)N(C)[C@H](C)C(=O)N(C)[C@@H](C(C)C)C(=O)N(C)[C@@H](C)C(=O)N[C@@H](Cc2ccccc2)C(=O)N[C@@H]([C@@H](C)O)C(=O)N(C)[C@@H](C)C(=O)N1C` [DP-354] ([dNMeA][NMeV][NMeA]FT[NMeA][NMeL]A[NMeA]D[NMeF]A-Piperidide; lactam N-10), the microsomal CLint at 1 uM in data set [1] was 8 µL/min/mg. The Papp at 18 hours, 50 µM in data set [2] worked out at 3.3 ×10⁻⁶ cm/s.

Take `CC(C)C[C@H]1C(=O)N[C@@H](Cc2ccccc2)C(=O)N[C@@H]([C@@H](C)O)C(=O)N(C)[C@@H](C)C(=O)N(C)[C@@H](Cc2ccccc2)C(=O)N(C)[C@@H](C(C)C)C(=O)NCC(=O)N[C@H](C(=O)N(C)[C@@H](Cc2ccccc2)C(=O)N[C@@H](C)C(=O)N2CCCCC2)CC(=O)N(C)[C@H](C)C(=O)N[C@@H](C)C(=O)N1C` [DP-355] ([dNMeA]A[NMeL]FT[NMeA][NMeF][NMeV]GD[NMeF]A-Piperidide; lactam N-10): in data set [1], the microsomal CLint at 1 uM amounted to 66 µL/min/mg. The Papp at 18 hours, 50 µM in data set [2] turned out to be 17 ×10⁻⁶ cm/s.

In the case of `CC(C)C[C@H]1C(=O)N[C@@H]([C@@H](C)O)C(=O)NCC(=O)N[C@@H](C(C)C)C(=O)N[C@H](C(=O)N(C)[C@@H](Cc2ccccc2)C(=O)N[C@@H](C)C(=O)N2CCCCC2)CC(=O)N(C)[C@H](C)C(=O)N(C)[C@@H](C(C)C)C(=O)N[C@@H](Cc2ccccc2)C(=O)N(C)[C@@H](Cc2ccccc2)C(=O)N(C)[C@@H](C)C(=O)N1C` [DP-356] ([dNMeA][NMeV]F[NMeF][NMeA][NMeL]TGVD[NMeF]A-Piperidide; lactam N-10), in data set [1], the microsomal CLint at 1 uM came out at 66 µL/min/mg. Further, in data set [2], the Papp at 18 hours, 50 µM was 34 ×10⁻⁶ cm/s.

As to `CC(C)C[C@H]1C(=O)N(C)[C@@H](C)C(=O)N[C@H](C(=O)N(C)[C@@H](Cc2ccccc2)C(=O)N[C@@H](C)C(=O)N2CCCCC2)CC(=O)N(C)[C@@H](C)C(=O)N(C)[C@@H](Cc2ccccc2)C(=O)N(C)[C@@H](C)C(=O)N[C@@H]([C@@H](C)O)C(=O)N(C)[C@@H](C)C(=O)N[C@@H](C(C)C)C(=O)N1C` [DP-357] ([NMeA][NMeF][NMeA]T[NMeA]V[NMeL][NMeA]D[NMeF]A-Piperidide; lactam N-9), in data set [1], the microsomal CLint at 1 uM amounted to 56 µL/min/mg. Further, in data set [2], the Papp at 18 hours, 50 µM turned out to be 14 ×10⁻⁶ cm/s.

In the case of `CC(C)C[C@H]1C(=O)N[C@@H]([C@@H](C)O)C(=O)N(C)[C@@H](C)C(=O)N(C)[C@@H](CC(C)C)C(=O)N[C@H](C(=O)N(C)[C@@H](Cc2ccccc2)C(=O)N[C@@H](C)C(=O)N2CCCCC2)CC(=O)N(C)CCC(=O)N(C)[C@@H](Cc2ccccc2)C(=O)N(C)[C@@H](C(C)C)C(=O)N[C@@H](C(C)C)C(=O)N1C` [DP-358] ([NMeβAla][NMeF][NMeV]V[NMeL]T[NMeA][NMeL]D[NMeF]A-Piperidide; lactam N-9), the microsomal CLint at 1 uM in data set [1] is 82 µL/min/mg. The Papp at 18 hours, 50 µM in data set [2] was 32 ×10⁻⁶ cm/s.

For `CC(C)C[C@H]1C(=O)N(C)[C@@H](C)C(=O)N[C@@H]([C@@H](C)O)C(=O)N(C)[C@@H](C)C(=O)N(C)[C@@H](Cc2ccccc2)C(=O)N[C@@H](Cc2ccccc2)C(=O)N[C@H](C(=O)N(C)[C@@H](Cc2ccccc2)C(=O)N[C@@H](C)C(=O)N2CCCCC2)CC(=O)N(C)CCC(=O)N(C)[C@@H](C)C(=O)N[C@@H](C)C(=O)N(C)CC(=O)N1C` [DP-361] ([NMeβAla][NMeA]A[Sar][NMeL][NMeA]T[NMeA][NMeF]FD[NMeF]A-Piperidide; lactam N-11), the microsomal CLint at 1 uM in data set [1] is 9 µL/min/mg. Besides, the Papp at 18 hours, 50 µM in data set [2] was found to be 1.5 ×10⁻⁶ cm/s.

Turning to `CC(C)C[C@H]1C(=O)N[C@@H](Cc2ccccc2)C(=O)N(C)[C@@H](C)C(=O)N(C)[C@@H](C)C(=O)N[C@@H]([C@@H](C)O)C(=O)N(C)CC(=O)N(C)[C@@H](Cc2ccccc2)C(=O)N[C@H](C(=O)N(C)[C@@H](Cc2ccccc2)C(=O)N[C@@H](C)C(=O)N2CCCCC2)CC(=O)N(C)[C@H](C)C(=O)N(C)[C@@H](C)C(=O)N[C@@H](C)C(=O)N1C` [DP-363] ([dNMeA][NMeA]A[NMeL]F[NMeA][NMeA]T[Sar][NMeF]D[NMeF]A-Piperidide; lactam N-11), the microsomal CLint at 1 uM in data set [1] came to 15 µL/min/mg. Further, the Papp at 18 hours, 50 µM in data set [2] turned out to be 5 ×10⁻⁶ cm/s.

For the molecule `CC[C@H](C)[C@@H]1NC(=O)[C@@H]2CCCN2C(=O)[C@H](CC(C)C)N(C)C(=O)[C@H](Cc2ccccc2)NC(=O)CCCN(C)C(=O)C[C@@H](C(=O)N(C)[C@@H](Cc2ccccc2)C(=O)N[C@@H](C)C(=O)N2CCCCC2)NC(=O)[C@H]([C@@H](C)O)NC(=O)[C@H](CC(C)C)NC(=O)[C@H](Cc2ccccc2)N(C)C(=O)CNC(=O)[C@H](CC(C)C)N(C)C1=O` [DP-364] ([NMeGABA]F[NMeL]PI[NMeL]G[NMeF]LTD[NMeF]A-Piperidide; lactam N-11), the microsomal CLint at 1 uM in data set [1] was determined as 75 µL/min/mg. Also, in data set [2], the Papp at 18 hours, 50 µM was 28 ×10⁻⁶ cm/s.

With `CC(C)C[C@@H]1NC(=O)[C@H](CC(C)C)N(C)C(=O)CNC(=O)[C@H](C(C)C)N(C)C(=O)[C@H](C)N(C)C(=O)[C@H]([C@@H](C)O)NC(=O)[C@H](C)N(C)C(=O)CCCN(C)C(=O)C[C@@H](C(=O)N(C)[C@@H](Cc2ccccc2)C(=O)N[C@@H](C)C(=O)N2CCCCC2)NC(=O)[C@H](Cc2ccccc2)NC(=O)[C@H](CC(C)C)N(C)C1=O` [DP-365] ([NMeGABA][NMeA]T[NMeA][NMeV]G[NMeL]L[NMeL]FD[NMeF]A-Piperidide; lactam N-11), in data set [1], the microsomal CLint at 1 uM came out at 35 µL/min/mg. In addition, the Papp at 18 hours, 50 µM in data set [2] worked out at 20 ×10⁻⁶ cm/s.
